Measurements taken from ChEMBL document CHEMBL1201862, “PubChem BioAssay data set” (2004).
The source made the active and inactive calls.

What was measured:
[1] = molecular target: T1, Oxysterols receptor LXR-beta (Homo sapiens, UniProt P55055); type: functional, cell-based;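 further: agonist activity at LXR measured by a cell-based luminescence readout across a dose range, run as a counterscreen for daf-12 agonists; HEK293 cells with Gal4-LXR fusion and GAL4-driven luciferase reporter; potency for activation of Gal4-LXR reporter so compounds are agonists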
T1 sequence (P55055 whole entry): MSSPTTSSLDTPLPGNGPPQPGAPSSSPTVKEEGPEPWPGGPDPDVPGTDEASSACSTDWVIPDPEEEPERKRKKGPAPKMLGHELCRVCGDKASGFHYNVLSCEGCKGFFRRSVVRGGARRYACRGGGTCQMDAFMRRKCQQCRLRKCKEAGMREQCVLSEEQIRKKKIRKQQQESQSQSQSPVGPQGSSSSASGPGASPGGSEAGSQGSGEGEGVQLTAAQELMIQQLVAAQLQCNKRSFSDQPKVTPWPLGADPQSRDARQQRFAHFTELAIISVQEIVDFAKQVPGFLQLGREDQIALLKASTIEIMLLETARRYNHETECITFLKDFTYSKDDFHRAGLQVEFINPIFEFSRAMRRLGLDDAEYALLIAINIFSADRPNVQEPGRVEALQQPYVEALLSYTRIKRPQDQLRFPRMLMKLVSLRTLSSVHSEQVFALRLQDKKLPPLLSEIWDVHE

[2] = inhibitors of HIV Env-driven cell fusion, dose response, cherry-pick (AID 652057); type: functional, cell-based
[3] = CEM21 lymphoblast cell cytotoxicity, dose response, cytotoxicity control for viral fusion inhibitor project, CellTiter-Glo luminescence, cherry-picked (AID 652042); type: functional, cell-based;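 further: potency for signal decrease meaning cytotoxicity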
[4] = ZM109 Env clade C HIV-1 fusion inhibitors, dose response, HeLa effector, CEM target cells, luciferase, cherry-pick (AID 652058); type: functional, cell-based
[5] = inhibitors of clade B AD8 Env fusion, dose response, cell-based, cherry-pick (AID 652062); type: functional;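 further: luciferase signal from cell-cell fusion driven by HIV-1 clade B AD8 Env; potency is for inhibitors of fusion seen as a drop in luminescence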
[6] = Late stage assay provider results from the probe development effort to identify selective inhibitors of heat shock protein 90 (HSP90): Absorbance-based cell proliferation assay in SKBR3 cells.; type: functional; conditions: SK-BR-3
[7] = Late stage assay provider results from the probe development effort to identify selective inhibitors of heat shock protein 90 (HSP90): Absorbance-based cell proliferation assay in MCF7 cells.; type: functional
[8] = molecular target: T2, Methionyl-tRNA synthetase, putative (Trypanosoma brucei brucei, UniProt Q38C91); type: functional, Trypanosoma brucei brucei strain 927/4 GUTat10.1
T2 sequence (Q38C91 whole entry): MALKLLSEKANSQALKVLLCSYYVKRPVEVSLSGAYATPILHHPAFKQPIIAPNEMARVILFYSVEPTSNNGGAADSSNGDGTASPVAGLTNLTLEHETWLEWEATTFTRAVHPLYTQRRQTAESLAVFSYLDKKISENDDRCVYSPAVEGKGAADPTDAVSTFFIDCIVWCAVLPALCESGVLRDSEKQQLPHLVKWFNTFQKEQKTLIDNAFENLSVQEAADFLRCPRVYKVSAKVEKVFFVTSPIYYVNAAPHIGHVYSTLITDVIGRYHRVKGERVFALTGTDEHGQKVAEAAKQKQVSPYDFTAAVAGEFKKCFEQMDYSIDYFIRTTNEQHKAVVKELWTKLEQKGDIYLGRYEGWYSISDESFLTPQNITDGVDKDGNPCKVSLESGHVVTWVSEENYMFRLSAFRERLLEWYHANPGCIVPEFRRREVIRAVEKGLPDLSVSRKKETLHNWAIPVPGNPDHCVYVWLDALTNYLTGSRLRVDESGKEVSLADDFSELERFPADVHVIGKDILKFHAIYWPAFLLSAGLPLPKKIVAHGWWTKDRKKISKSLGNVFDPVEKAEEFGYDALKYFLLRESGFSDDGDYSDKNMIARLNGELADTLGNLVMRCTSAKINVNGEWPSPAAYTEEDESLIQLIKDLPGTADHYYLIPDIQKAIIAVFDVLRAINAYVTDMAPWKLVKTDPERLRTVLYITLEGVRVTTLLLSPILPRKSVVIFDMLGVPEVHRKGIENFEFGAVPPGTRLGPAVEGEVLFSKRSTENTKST

[9] = Counterscreen for inhibitors of Trypanosoma brucei methionyl tRNA synthetase (MetRS): Luminescence-based cell-based high throughput dose response assay to identify compounds that are cytotoxic to Jurkat human T lymphocyte cells.; type: functional
[10] = molecular target: T2, Methionyl-tRNA synthetase, putative; type: functional, Trypanosoma brucei brucei strain 927/4 GUTat10.1; remark: listed apart in the source
[11] = Late stage counterscreen for inhibitors of Trypanosoma brucei methionyl tRNA synthetase (MetRS): Luminescence-based cell-based high throughput dose response assay to identify compounds that are cytotoxic to Jurkat human T lymphocyte cells.; type: functional
Beta-galactosidase = Beta-galactosidase (Escherichia coli, UniProt Q8VNN2); assay: Dose response counterscreen for EBI2 assay utilizing the enzyme, b-galactosidase.; type: functional
[12] = molecular target: Disintegrin and metalloproteinase domain-containing protein 17 (Homo sapiens, UniProt P78536); assay: exosite inhibitors of ADAM17, dose response, biochemical (AID 743260)
[13] = ADAM10 protease inhibitors, dose response, selectivity assay for ADAM17 exosite inhibitor project, biochemical, FRET peptide substrate, recombinant human ADAM10 (AID 743259);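 further: ADAM10 enzyme cleaving a FRET peptide substrate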
fMet-Leu-Phe receptor = fMet-Leu-Phe receptor (Homo sapiens, UniProt P21462); assay: FPR ligands, dose response (AID 519); type: functional
HEK293 = assay: HEK293T cell cytotoxicity, dose response, cytotoxicity control, ATP luminescence, cherry-pick samples (AID 687005); type: functional, cell-based; conditions: Homo sapiens;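 further: cells exposed to compound for 48 hours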
[14] = HEK293 Cytotoxicity Assay Measured in Cell-Based System Using Plate Reader - 7071-01_Inhibitor_Dose_CherryPick_Activity_Set2.; type: functional
[15] = molecular target: T3, Probable nicotinate-nucleotide adenylyltransferase (Staphylococcus aureus (strain N315), UniProt P65502); type: functional, Staphylococcus aureus subsp. aureus N315;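 on IC50 Mean: confirmatory dose-response retesting of NadD inhibitor hits first found in an ultra-high-throughput screen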
[16] = molecular target: T3, Probable nicotinate-nucleotide adenylyltransferase; type: functional, Staphylococcus aureus subsp. aureus N315; conditions: read-out: IC50_Mean
HeLa = assay: HeLa cell cytotoxicity, dose response, cytotoxicity control, ATP luminescence, cherry-pick samples (AID 687004); type: functional, cell-based; conditions: Homo sapiens
Beta-lactamase [17] = molecular target: Beta-lactamase (Pseudomonas aeruginosa, UniProt Q79MP6);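 further: biochemical dose-response test of metallo-beta-lactamase enzyme inhibition, read out by epi-absorbance; purified recombinant IMP-1 metallo-beta-lactamase with nitrocefin as substrate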
Beta-lactamase [18] = molecular target: Beta-lactamase (Salmonella choleraesuis (strain SC-B67), UniProt Q5J463)
Bcl-2-related protein A1 = molecular target: T4, Bcl-2-related protein A1 (Mus musculus, UniProt Q07440); type: functional;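 further: confirmatory dose–response counterscreen on Bfl-1, used to check hits from a UBC13 polyubiquitin inhibitor campaign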
T4 sequence (Q07440 whole entry): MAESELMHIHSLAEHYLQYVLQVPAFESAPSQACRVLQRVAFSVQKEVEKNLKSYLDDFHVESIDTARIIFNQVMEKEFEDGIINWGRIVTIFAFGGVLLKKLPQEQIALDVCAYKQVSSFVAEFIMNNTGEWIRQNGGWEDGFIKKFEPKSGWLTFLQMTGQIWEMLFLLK

[19] = molecular target: T5, Ubiquitin-conjugating enzyme E2 N (Homo sapiens, UniProt P61088); type: functional
T5 sequence (P61088 whole entry): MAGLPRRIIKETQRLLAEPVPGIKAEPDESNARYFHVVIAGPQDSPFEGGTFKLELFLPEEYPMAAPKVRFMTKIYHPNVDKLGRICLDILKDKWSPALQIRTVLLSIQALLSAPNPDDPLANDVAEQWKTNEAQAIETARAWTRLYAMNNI

[20] = molecular target: T5, Ubiquitin-conjugating enzyme E2 N; type: functional; remark: listed apart in the source
[21] = molecular target: DNA repair protein RAD52 homolog (Homo sapiens, UniProt P43351); type: functional, biochemical
CAAX prenyl protease 2 = molecular target: T6, CAAX prenyl protease 2 (Homo sapiens, UniProt Q9Y256); assay: human Rce1 protease inhibitors, dose response, biochemical, yeast membranes, quenched-peptide fluorescence, cherry-pick (AID 588849)
T6 sequence (Q9Y256 whole entry): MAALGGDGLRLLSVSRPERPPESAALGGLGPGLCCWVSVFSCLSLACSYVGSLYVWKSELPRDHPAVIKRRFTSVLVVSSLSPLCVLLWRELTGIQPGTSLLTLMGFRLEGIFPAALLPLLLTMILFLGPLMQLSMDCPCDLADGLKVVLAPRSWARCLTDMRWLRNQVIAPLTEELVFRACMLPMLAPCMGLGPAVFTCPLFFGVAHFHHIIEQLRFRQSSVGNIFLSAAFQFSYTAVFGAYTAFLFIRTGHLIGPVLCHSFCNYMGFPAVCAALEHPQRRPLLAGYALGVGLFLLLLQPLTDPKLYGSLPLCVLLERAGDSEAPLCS

[22] = molecular target: T7, Corticotropin-releasing factor receptor 2/Corticotropin-releasing factor-binding protein (Homo sapiens, UniProt P24387+Q13324); assay: Dose Response confirmation of uHTS hits for small molecule antagonists of the CRF-binding protein and CRF-R2 receptor complex.; type: functional; conditions: read-out: IC50_Mean
T7 sequence (Q13324 whole entry): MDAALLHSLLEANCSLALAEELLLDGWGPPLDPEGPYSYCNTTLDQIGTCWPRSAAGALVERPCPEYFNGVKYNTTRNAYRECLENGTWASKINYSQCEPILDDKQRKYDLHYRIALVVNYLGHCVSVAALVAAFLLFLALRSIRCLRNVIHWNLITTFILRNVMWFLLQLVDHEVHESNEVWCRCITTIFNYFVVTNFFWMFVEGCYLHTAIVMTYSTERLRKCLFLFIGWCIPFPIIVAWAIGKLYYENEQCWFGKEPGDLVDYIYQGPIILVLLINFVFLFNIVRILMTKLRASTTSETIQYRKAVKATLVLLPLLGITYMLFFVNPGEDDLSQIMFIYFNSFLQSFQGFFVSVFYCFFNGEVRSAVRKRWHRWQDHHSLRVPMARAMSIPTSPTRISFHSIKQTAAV
T7 sequence (P24387 whole entry): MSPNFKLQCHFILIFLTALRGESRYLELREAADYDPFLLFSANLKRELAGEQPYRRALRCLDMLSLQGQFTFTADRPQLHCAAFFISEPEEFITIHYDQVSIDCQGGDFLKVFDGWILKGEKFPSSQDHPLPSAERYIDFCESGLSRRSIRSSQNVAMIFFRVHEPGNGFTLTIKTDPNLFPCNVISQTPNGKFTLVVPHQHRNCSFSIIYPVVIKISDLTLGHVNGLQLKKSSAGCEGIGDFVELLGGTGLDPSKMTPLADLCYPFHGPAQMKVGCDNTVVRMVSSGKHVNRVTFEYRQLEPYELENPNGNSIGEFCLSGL

[23] = molecular target: T7, Corticotropin-releasing factor receptor 2/Corticotropin-releasing factor-binding protein; assay: activators of CRF receptor 2 with binding protein – uHTS hits, confirmation (AID 602473); type: functional; conditions: read-out: EC50_Mean
[24] = CRF-BP/CRF-R2 complex antagonists, dose response, cell-based, uHTS hits, 384-well (AID 651639); type: functional, Homo sapiens; conditions: read-out: IC50_Mean
Cytochrome P450 2C9 = Cytochrome P450 2C9 (Homo sapiens, UniProt P11712)
Sequence of Cytochrome P450 2C9 (P11712 whole entry): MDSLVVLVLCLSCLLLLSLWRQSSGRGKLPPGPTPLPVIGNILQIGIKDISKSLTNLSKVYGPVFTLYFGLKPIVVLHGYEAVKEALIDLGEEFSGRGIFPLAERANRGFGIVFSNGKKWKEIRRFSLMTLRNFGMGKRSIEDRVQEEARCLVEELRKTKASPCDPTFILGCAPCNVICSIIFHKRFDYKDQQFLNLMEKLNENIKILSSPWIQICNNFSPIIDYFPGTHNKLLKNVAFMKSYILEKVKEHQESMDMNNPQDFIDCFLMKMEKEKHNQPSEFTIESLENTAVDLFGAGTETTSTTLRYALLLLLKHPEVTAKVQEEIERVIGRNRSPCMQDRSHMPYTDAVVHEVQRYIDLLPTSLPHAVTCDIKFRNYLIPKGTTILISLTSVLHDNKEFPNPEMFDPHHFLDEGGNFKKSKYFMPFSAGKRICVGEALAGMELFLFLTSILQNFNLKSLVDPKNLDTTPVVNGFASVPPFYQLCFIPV

Sequence of Beta-galactosidase (Q8VNN2 whole entry, the tested form may be a part): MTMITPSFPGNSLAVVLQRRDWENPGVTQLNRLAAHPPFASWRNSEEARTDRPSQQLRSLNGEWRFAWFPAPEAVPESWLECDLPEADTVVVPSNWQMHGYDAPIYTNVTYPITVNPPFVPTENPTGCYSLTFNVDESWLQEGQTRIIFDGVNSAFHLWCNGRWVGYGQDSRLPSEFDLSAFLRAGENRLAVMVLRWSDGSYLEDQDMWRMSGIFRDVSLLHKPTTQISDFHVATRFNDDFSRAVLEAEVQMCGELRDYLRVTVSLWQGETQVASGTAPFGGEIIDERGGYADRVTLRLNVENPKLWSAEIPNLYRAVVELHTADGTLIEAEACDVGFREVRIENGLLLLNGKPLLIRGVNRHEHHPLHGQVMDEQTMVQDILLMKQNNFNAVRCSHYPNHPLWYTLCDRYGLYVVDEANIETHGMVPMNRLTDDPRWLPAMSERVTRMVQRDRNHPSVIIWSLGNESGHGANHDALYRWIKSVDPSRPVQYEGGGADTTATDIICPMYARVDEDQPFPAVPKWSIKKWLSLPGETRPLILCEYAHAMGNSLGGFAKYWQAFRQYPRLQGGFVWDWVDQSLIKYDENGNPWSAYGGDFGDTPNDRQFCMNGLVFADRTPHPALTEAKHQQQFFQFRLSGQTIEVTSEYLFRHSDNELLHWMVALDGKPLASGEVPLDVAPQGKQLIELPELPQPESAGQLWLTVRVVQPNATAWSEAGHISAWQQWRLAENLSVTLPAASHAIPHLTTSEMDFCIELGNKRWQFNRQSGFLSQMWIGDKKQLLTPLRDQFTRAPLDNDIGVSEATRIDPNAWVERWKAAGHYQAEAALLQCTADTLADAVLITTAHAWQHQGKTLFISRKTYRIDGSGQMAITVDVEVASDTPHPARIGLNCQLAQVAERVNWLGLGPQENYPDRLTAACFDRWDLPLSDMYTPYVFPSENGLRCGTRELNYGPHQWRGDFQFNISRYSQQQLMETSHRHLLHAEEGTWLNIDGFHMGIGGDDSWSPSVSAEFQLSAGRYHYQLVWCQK
T3 sequence (P65502 whole entry): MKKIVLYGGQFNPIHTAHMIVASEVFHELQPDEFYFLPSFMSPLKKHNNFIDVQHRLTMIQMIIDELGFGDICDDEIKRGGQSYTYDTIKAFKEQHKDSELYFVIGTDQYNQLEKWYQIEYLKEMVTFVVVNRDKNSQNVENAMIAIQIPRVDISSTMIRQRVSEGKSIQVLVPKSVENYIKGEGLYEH
Sequence of fMet-Leu-Phe receptor (P21462 whole entry): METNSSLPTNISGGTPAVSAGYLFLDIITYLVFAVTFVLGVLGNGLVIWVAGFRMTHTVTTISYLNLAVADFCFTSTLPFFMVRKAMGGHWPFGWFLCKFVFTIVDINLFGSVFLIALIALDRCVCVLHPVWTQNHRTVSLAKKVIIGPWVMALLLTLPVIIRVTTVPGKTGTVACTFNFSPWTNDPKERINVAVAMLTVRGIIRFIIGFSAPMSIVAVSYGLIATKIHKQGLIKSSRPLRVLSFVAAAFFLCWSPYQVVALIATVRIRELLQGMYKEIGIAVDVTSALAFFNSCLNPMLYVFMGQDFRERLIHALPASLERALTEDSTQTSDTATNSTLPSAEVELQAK
Sequence of Disintegrin and metalloproteinase domain-containing protein 17 (P78536 whole entry, the tested form may be a part): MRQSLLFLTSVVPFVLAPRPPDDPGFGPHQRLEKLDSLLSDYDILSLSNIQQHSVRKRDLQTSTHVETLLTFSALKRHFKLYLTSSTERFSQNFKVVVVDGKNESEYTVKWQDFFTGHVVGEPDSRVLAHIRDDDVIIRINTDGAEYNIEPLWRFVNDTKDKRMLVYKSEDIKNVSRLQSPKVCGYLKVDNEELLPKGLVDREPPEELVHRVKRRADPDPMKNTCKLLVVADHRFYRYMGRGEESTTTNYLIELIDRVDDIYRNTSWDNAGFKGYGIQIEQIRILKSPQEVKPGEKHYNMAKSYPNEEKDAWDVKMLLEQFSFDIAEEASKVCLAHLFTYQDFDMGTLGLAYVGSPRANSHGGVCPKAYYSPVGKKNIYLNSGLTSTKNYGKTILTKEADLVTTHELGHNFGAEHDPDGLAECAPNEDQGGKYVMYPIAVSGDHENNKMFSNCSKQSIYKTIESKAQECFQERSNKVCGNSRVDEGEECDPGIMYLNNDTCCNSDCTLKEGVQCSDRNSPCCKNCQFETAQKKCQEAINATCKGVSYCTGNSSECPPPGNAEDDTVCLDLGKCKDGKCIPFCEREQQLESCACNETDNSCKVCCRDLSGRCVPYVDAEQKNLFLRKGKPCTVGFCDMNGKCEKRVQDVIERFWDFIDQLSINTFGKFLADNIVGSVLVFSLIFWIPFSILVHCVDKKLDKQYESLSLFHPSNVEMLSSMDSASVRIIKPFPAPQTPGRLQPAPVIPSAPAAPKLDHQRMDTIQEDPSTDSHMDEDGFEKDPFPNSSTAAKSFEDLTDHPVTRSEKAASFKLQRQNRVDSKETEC
Sequence of DNA repair protein RAD52 homolog (P43351 whole entry): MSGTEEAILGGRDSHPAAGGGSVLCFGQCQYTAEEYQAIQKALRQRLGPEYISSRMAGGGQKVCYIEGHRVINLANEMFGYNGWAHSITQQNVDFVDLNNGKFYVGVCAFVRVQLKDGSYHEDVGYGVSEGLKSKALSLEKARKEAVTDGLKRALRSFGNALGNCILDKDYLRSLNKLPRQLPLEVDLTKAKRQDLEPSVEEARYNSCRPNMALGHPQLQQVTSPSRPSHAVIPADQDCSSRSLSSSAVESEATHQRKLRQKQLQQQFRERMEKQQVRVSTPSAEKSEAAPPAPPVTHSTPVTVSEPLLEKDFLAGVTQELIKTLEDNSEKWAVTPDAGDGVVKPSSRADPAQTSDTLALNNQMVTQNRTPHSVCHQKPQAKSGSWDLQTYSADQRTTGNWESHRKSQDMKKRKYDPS
Sequence of Beta-lactamase (Salmonella choleraesuis (strain SC-B67), UniProt Q5J463) (Q5J463 whole entry): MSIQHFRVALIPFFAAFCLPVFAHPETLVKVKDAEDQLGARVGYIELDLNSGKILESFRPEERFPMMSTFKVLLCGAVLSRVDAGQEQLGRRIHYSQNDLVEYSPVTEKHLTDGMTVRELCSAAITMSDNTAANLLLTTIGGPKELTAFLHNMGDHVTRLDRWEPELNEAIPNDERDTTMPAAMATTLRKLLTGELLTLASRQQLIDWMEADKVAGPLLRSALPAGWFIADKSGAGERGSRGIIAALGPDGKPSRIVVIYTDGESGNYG
Sequence of Beta-lactamase (Pseudomonas aeruginosa, UniProt Q79MP6) (Q79MP6 whole entry): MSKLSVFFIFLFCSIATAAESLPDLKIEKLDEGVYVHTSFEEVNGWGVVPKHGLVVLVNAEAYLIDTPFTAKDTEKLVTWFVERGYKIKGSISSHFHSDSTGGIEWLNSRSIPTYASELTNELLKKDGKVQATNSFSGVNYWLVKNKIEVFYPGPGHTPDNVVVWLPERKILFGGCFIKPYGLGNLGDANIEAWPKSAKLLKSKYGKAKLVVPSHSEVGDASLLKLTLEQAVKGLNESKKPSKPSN

## CC1CCC(NC(=O)c2cccn2C)CC1 (centres undefined)
[1]
  EC50: > 67.6 µM (inactive)

## C[C@H](CO)N1C[C@H](C)[C@H](CN(C)S(=O)(=O)c2ccccc2)Oc2ccc(NC(=O)Nc3cccc4ccccc34)cc2CC1=O
[2]
  AC50: < 0.26 µM (active)
[3]
  AC50: 31.7 µM (active)
[4]
  AC50: < 0.26 µM (active)
[5]
  AC50: 0.685 µM (active)

## O=C(Nc1ccc(F)cc1)c1coc(=O)c(Br)c1
[6]
  IC50: 8.8 µM (active)
[7]
  IC50: 3.4 µM (active)

## CCOC(=O)N1CCC(Nc2c(Nc3ccc(F)cc3)c(=O)c2=O)CC1
[8]
  IC50: 7.98 µM (active)
[9]
  IC50: 83.3 µM (inactive)
[10]
  IC50: 4.36 µM (active)
[11]
  IC50: > 83.3 µM (inactive)

## CCS(=O)(=O)Nc1cc(-c2nc3cccnc3s2)ccc1C
[1]
  EC50: > 67.5 µM (inactive)

## O=C(/C=C/c1ccccc1)N1CCN(c2ccccn2)CC1
Beta-galactosidase
  IC50: > 80 µM (inactive)

## C#Cc1ccc([C@@H]2C=C(C(=O)NCc3nc4ccccc4[nH]3)O[C@H](OCC)[C@H]2CCCO)cc1
[8]
  IC50: 22.3 µM (inactive)
[9]
  IC50: 35.8 µM (inactive)
[10]
  IC50: 8.94 µM (active)

## O=C(SCC(O)C(O)CS)c1cccs1 (centres undefined)
[12]
  IC50: 3.76 µM (active)
[13]
  IC50: 40.5 µM (inactive)

## C[C@H](c1ccccc1)N1C[C@H](COCc2ccccc2)Oc2cc(N3CC[C@@H](O)C3)ccc2S1(=O)=O
[12]
  IC50: > 69.5 µM (inactive)
[13]
  IC50: 16 µM (inactive)

## OCc1nc2ccccc2n1CC(O)Cn1ccc2ccccc21 (centres undefined)
fMet-Leu-Phe receptor
  Ki: > 66.7 µM (inactive)

## O=C(NCc1nc2ccccc2[nH]1)C1=C[C@H](c2ccc(Br)cc2)C[C@H](OCCCCO)O1
[11]
  IC50: 66.7 µM (inactive)

## C[C@@H]1CCCCO[C@@H](CN(C)S(=O)(=O)c2ccc(F)cc2)[C@@H](C)CN([C@@H](C)CO)C(=O)c2cc(NS(=O)(=O)c3ccc(F)cc3)ccc2O1
HEK293
  AC50: 17.1 µM (active)
[14]
  AC50: 17.1 µM (active)

## CCn1cc(/C=N/NC(=O)c2cc3c(ccc4ccccc43)o2)c2ccccc21
[15]
  IC50: 40.7 µM (active)
[16]
  IC50: 80 µM (inactive)

## Cc1ccc(N=C(S)Nc2ccc(Cl)c(Cl)c2)c(OC(F)F)c1
HeLa
  AC50: 29.9 µM (active)
HEK293
  AC50: 26.6 µM (active)
[14]
  AC50: 26.6 µM (active)

## COc1ccccc1N1CCN(C(=O)c2cc3cc(C)ccc3[nH]2)CC1
Beta-galactosidase
  IC50: > 80 µM (inactive)

## O=C1OC(=O)/C(=C\Nc2cnc3ccccc3c2)C=C1Br
[6]
  IC50: 17.4 µM (inactive)
[7]
  IC50: 12.1 µM (inactive)

## COCCCN1C(=O)C(O)=C(C(=O)c2ccco2)C1c1ccc(Br)cc1 (centres undefined)
fMet-Leu-Phe receptor
  Ki: 14.7 µM (active)

## COCCCn1/c(=N/C(=O)c2ccccc2)c(C#N)cc2c(=O)n3cccc(C)c3nc21
Beta-lactamase [17]
  IC50: > 59.6 µM (inactive)
Beta-lactamase [18]
  IC50: > 59.6 µM (inactive)

## Cc1ccc(C(=O)NCCN2C3=NC[C@@H](Cc4ccccc4)N3C[C@H]2Cc2ccc(O)cc2)cc1Br
Bcl-2-related protein A1
  IC50: > 20 µM (inactive)
[19]
  IC50: 19.4 µM (active)
[20]
  IC50: > 20 µM (inactive)
[21]
  AC50: 19.2 µM (active)

## CSc1nnc(-c2sc(-c3ccccc3)nc2C)n1C
CAAX prenyl protease 2
  AC50: > 100 µM (inactive)
[22]
  IC50: < 0.368 µM (active)
[23]
  EC50: > 53 µM (inactive)
[24]
  IC50: > 20 µM (inactive)
Cytochrome P450 2C9
  AC50: 0.0708 µM (inconclusive)
